Results taken from patent US10544460B2, “Homeobox transcription factor ventx regulates differentiation and maturation of human dendritic cells” (priority 2013, dated 2020).

Tests used:
VentX [1] = assay: VentX knockdown efficiency in monocytes / monocyte-derived DCs; format: cell-based, human; conditions: 5 days after transfection
Text: Following a recent finding that VentX is expressed in human primary monocytes, VentX expression was examined during primary monocytes to dendritic cells differentiation induced by GM-CSF and IL-4 treatment. […] To explore potential role of VentX in DC differentiation, the effects of VentX knockdown on in vitro DCs differentiation were examined. […] (Iwamoto, et al. 2007 J Immunol 179(3): p. 1449-57; Gabriele, et al. 2004 Blood 103(3): p. 980-7.) To obtain a long-lasting knockdown effect of VentX in monocytes, a morpholino (MO) mediated VentX knockdown strategy was developed. Two different morpholino antisense oligonucleotides were designed (VentX MO and VentX MO-2) and tested for the knockdown efficiency of VentX. […] Freshly isolated CD14^+CD1a^− monocytes differentiate in vitro into immature CD14^−CD1a^+ DCs when cultured with GM-CSF and IL-4. […] To corroborate the role of VentX in regulating DCs differentiation, VentX was ectopically expressed in primary monocytes and the CD14^−CD1a^+ cells were determined after 3 days of cytokines treatment. […]
(§1) Dendritic & Antigen Presenting Cell PCR Array was purchased from SABiosciences (Valencia, Calif.). […] (Wu, et al. 2011 J Clin Invest 121(7): p. 2599-613.) Incorporated BrdU was detected with PE-conjugated anti-BrdU antibody and analyzed with flow cytometry.

VentX [2] = assay: VentX expression in LPDCs treated with prednisolone (real time PCR); format: cell-based, human; conditions: prednisolone 10 μg/ml, 48 hours, vs mock treated; FIG. 6F
Experimental: (§2) FIG. 6: VentX is required for the maturation of lamina propria DCs. (A) LPDCs were isolated from inflamed and non-inflamed intestinal mucosa of five IBD patients. VentX level was determined with real time PCR. (B) LPDCs were transfected with siRNA targeting VentX or control GFP through electroporation followed by culturing in medium for two days. Then cells were stimulated with LPS for overnight to induce maturation and harvested for flow cytometry analysis of surface markers and intracellular cytokines/chemokines. Filled histograms indicate siGFP transfection. […] Results are expressed as the percentage of MFI normalized to control. […] (D) LPDCs transfected with siGFP or siVentX were analyzed for the mRNA expression levels of indicated genes. […] (F) DCs were treated with prednisolone (10 μg/ml) for 48 hours or mock treated, and VentX level was determined with real time PCR. […]
(§3) Aberrant activation of DCs has been implicated in mucosal inflammation in pathogenesis of inflammatory bowl diseases. […] VetnX expression levels in these DCs were determined by RT-PCR methods. […]
as §1

LPDCs = assay: Pro-inflammatory cytokine mRNA in DCs treated with prednisolone and LPS; format: cell-based, human; conditions: prednisolone, LPS added 24 hours later, harvested at 48 hours, FIG. 6G
Experimental: as §2, §3, §1

human primary monocytes = assay: Primary monocyte to dendritic cell differentiation induced by GM-CSF and IL4 (flow cytometry of surface antigens); format: cell-based
Experimental: Peripheral blood mononuclear cells (PBMC) from healthy adult donors at Dana-Farber Cancer Institute were isolated by Ficoll density gradient centrifugation. CD14^+ monocytes were purified from PBMCs using anti-CD14 antibody coated magnetic microbeads (Miltenyi Biotec, Auburn, Calif.). Monocytes were cultured in 12-well plates at 1×10^6 cells/ml with RPMI 1640 medium containing 10% fetal bovine serum (FBS), GM-CSF (100 ng/ml) and IL4 (20 ng/ml) (PeproTech, Rocky Hill, N.J.). Cytokines were added to cultures every 2 or 3 days for a total of 5 days to induce dendritic cells differentiation. Neutralizing antibody against IL6 was purchased from R&D Systems (Minneapolis, Minn.) and used at daily dose of 2.5 μg/ml. Intestinal mucosa was obtained from surgically resected specimens from patients diagnosed with inflammatory bowel diseases including Crohn's disease and ulcerative colitis. Specimens were taken from both inflamed and non-inflamed mucosa and were confirmed macroscopically and microscopically. Lamina propria mononuclear cells were isolated using previously described techniques. (Dillon, et al. 2010 J Immunol 184(12): p. 6612-21; Kamada, et al. 2008 J Clin Invest 118(6): p. 2269-80.) LPDCs were purified as the fraction of CD19^−CD1c^+ cells with magnetic microbeads (Miltenyi Biotec). To promote maturation of DCs, 100 ng/ml of E Coli LPS (Sigma-Aldrich) was added to the medium and further cultured for 24 hours. Experiments with human materials were performed in accordance with guidelines approved by the institutional review committee of Brigham and Women's Hospital. […]
(§4) Phenotypic analyses of DCs and THP1 cells were performed with flow cytometry after immunostaining of cells with fluorescence dye conjugated antibodies (eBioscience, San Diego, Calif.). […] Stained cells were analyzed with FACScan flow cytometer (BD Bioscience) using FlowJo software. Results are expressed as the percentage of positive cells or mean fluorescence intensity (MFI) values after subtraction of the MFI obtained from the isotype control antibody.

IL6 = assay: Cytokine expression in transfected monocytes (reverse transcription PCR and intracellular staining); format: cell-based, human
Experimental: To elucidate the mechanisms underlying VentX regulated DCs differentiation and maturation, expression level of cytokines known to be important for DCs development was analyzed by reverse transcription PCR and intracellular staining. […] It has been shown that IL6 inhibits DC differentiation and maturation from both CD14^+ monocytes and CD34^+ progenitor cells. […] The effect of VentX on the activity of […] IL6 promoter luciferase reporter and several deletion mutant constructs was assessed. […] To address this question, neutralizing antibody against IL6 was added to the culture medium of VentX MO transfected monocytes and differentiation of DCs was assessed through flow cytometry analysis of CD1a surface expression.
as §4, with “antibody. […]” for “antibody.”

DCs = format: cell-based, human; conditions: after MO transfection; data not shown
Text: Following a recent finding that VentX is expressed in human primary monocytes, VentX expression was examined during primary monocytes to dendritic cells differentiation induced by GM-CSF and IL-4 treatment. […] To explore potential role of VentX in DC differentiation, the effects of VentX knockdown on in vitro DCs differentiation were examined. […] (Iwamoto, et al. 2007 J Immunol 179(3): p. 1449-57; Gabriele, et al. 2004 Blood 103(3): p. 980-7.) To obtain a long-lasting knockdown effect of VentX in monocytes, a morpholino (MO) mediated VentX knockdown strategy was developed. Two different morpholino antisense oligonucleotides were designed (VentX MO and VentX MO-2) and tested for the knockdown efficiency of VentX. […] Freshly isolated CD14^+CD1a^− monocytes differentiate in vitro into immature CD14^−CD1a^+ DCs when cultured with GM-CSF and IL-4. (Bell, et al. 2001 J Immunol 166(8): p. 4958-67.) Surface expression of CD1a antigen was examined in monocytes transfected with control MO or VentX MO respectively. […] To corroborate the role of VentX in regulating DCs differentiation, VentX was ectopically expressed in primary monocytes and the CD14^−CD1a^+ cells were determined after 3 days of cytokines treatment. Overexpression of VentX in monocytes greatly accelerated the DCs differentiation (FIG. 1E-F).

Row | Molecule | VentX expression in DCs compared with control sequence (VentX [1]) | VentX expression in LPDCs (VentX [2]) | expression of pro-inflammatory cytokines, such as the IL2, TNF, CCL5 (LPDCs) | expression of CD16, CD36, CD64, mannose receptor (MR) and TLR4 (human primary monocytes; MO transfected DCs) | percentage of CD14-CD1a+ cells (human primary monocytes; monocytes + GM-CSF and IL4, 5 days, in comparison with control MO, FIG. 1A-B) | surface expression of CD1b, CD1c and CD11c (human primary monocytes; monocytes + GM-CSF and IL4, 5 days, vs control MO) | IL1β, TNFα and IL10 expression (IL6; MO transfected cells, data not shown) | IL6 expression (IL6; monocytes + GM-CSF and IL4, 5 days, mRNA and intracellular level, FIGS. 3A and C) | cell death in DCs (DCs)
1 | 5′-GAGCCCGGTTTGCATACACGGCTAA-3′ (morpholino, further chemistry not given here) [VentX MO-2, Morpholino antisense oligonucleotide targeting VentX] | inhibited VentX expression | – | – | – | – | – | – | – | –
2 | C[C@]12C=CC(=O)C=C1CC[C@@H]1[C@@H]2[C@@H](O)C[C@@]2(C)[C@H]1CC[C@]2(O)C(=O)CO [prednisolone] | – | dramatically decreased | dramatically decreased | – | – | – | – | – | –
3 | 5′-TACTCAACCCTGACATAGAGGGTAA-3′ (morpholino, further chemistry not given here) [VentX MO, Morpholino antisense oligonucleotide targeting VentX] | inhibited VentX expression | – | – | remained unchanged | substantial reduction | similarly downregulated | no apparent changes | consistently increased | did not cause excess cell death
